Measured values taken from US8901118B2, “Compounds and methods for kinase modulation, and indications therefor” (Plexxikon Inc., priority 2010, dated 2014).

Columns and labels:
BCR-KIT BaF3 cells = molecular target: T1, BCR-KIT BaF3 cells (Homo sapiens, UniProt P10721); test: BaF3 BCR-KIT cell proliferation assay (ATPlite); assay type: cell-based; settings: read-out: Inhibition of Cell Proliferation IC50, BCR/BaF3 Kit
T1 construct: fused on or other part: P11274 (Breakpoint cluster region protein)
In short: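 Cells are plated overnight: BaF3 at 10,000/well in G418 medium without WEHI/IL-3, MV-4-11 at 25,000/well in IMDM with 10% FBS. An 8-point 1:3 compound titration (10 μM top) is then added, and plates are incubated 3 days at 37 °C before ATPlite readout and IC50 determination.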

TrkA kinase = TrkA kinase (Homo sapiens, UniProt P04629); test: TrkA kinase biochemical activity assay (AlphaScreen); settings: 100 μM ATP; read-out: Biochemical Inhibition IC50 TrkA
In short: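 IC50 values come from AlphaScreen PY20/streptavidin bead signal versus compound concentration. Kinase reaction: 1 ng/well TrkA, 100 μM ATP, 30 nM biotin-(E4Y)10 substrate, Mn2+-containing Hepes buffer pH 7.5, 5% DMSO, 40 min, room temperature; TrkC assayed by the same approach.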

SKNSH cells = test: SKNSH (human neuroblastoma) cell proliferation assay (ATPlite); assay type: cell-based; settings: SK-N-SH, read-out: Inhibition of Cell Proliferation IC50, SKNSH
Procedure: Compounds are assessed in a variety of cell based assays. For example BaF3 cells engineered with any of BCR-FMS, BCR-KIT, BCR-FLT3, BCR-NTRK1, BCR-NTRK2, and BCR-NTRK3, are used in cell proliferation assays to assess inhibitory activity of Fms, Kit, Flt-3, TrkA, TrkB, and TrkC, respectively. An MV-4-11 (leukemia) cell proliferation assay is used to assess inhibitory activity in Flt-3, and SKNSH (human neuroblastoma) cell proliferation assay is used to assess efficacy of Fms/Trk inhibitors. Additional cells may be assayed similarly to assess the efficacy of Fms/Trk inhibitors, such as MiaPaCa (human pancreatic cancer) and Capan-1 (human pancreatic carcinoma) cells. Reagent and assay conditions are as follows: • BaF3 cells: • Maintained in RPMI containing 10% FBS, 1% PenStrep, 1% NEAA, and 1% L-Glutamine, supplemented with 1 mg/mL G418 and 5% WEHI-CM (or recombinant murine IL-3). • Confluent cells are split 1:50 to 1:100 every 3-4 days. • MV-4-11 cells: • Maintained in Iscove's Modified Dulbecco's Medium containing 10% FBS. • Confluent cells are split 1:4 every 3-4 days. • SKNSH cells: RPMI containing 10% FBS. On day 1, cells are counted, then centrifuged in a conical tube for 5 minutes at 1000 rpm. The supernatant is removed and cells are re-suspended as follows: • BaF3: resuspend in growth media +1 mg/mL G418 (without WEHFIL-3) to 2×10^5 cells/mL. • MV-4-11: resuspend in growth media to 5×10^5 cells/mL. • SKNSH: resuspend in growth media to 2×10^4 cells/mL. The cells are plated (50 μL, 150 μL for SKNSH cells) in each well of a 96-well dish (Corning 3610) and incubated at 37° C. in 5% CO2 overnight, cells plated to a final concentration of cells as follows: • BaF3: 10,000 cells per well. • MV-4-11: 25,000 cells per well. • SKNSH: 3,000 cells per well. On day 2, compound at a maximum concentration of 5 mM is serially diluted 1:3 for a total of 8 point titration with DMSO as a control. A 1 μL aliquot of each dilution point is added to 249 μL growth media and 50 μL is added to a well containing cells, providing 10 μM compound for the maximum concentration point. The cells are incubated for 3 days at 37° C. in 5% CO2. For SKNSH cells, a 0.75 μL aliquot of appropriate dilution in DMSO is added to 150 μL of cells. On day 5, ATPlite 1 step Luminescence Assay System (Perkin Elmer #6016739) is brought to room temperature along with the cell cultures. ATPlite is added to each well as follows: • BaF3: 25 μL per well. • MV-4-11: 40 μL per well. • SKNSH: 20 μL per well. The cells are incubated at room temperature for 10 minutes, then luminescence is read on Safire reader. The measured luminescence correlates directly with cell number, such that the reading as a function of compound concentration is used to determine the IC50 value.
It is understood that the results of these assays may vary as assay conditions are varied. Inhibition levels determined under the conditions described herein represent a relative activity for the compounds tested under the specific conditions employed. The cell based assays are likely to show variability due to the complexity of the system and the sensitivity thereof to any changes in the assay conditions. […] Results for compounds that are tested and show substantially no inhibition below the highest tested concentration are represented as “-” in the tables below. In some instances, the compounds were not tested in all of the assays, or assay results were not valid, as indicated by NA in the tables below.

Chain of TrkA kinase (P04629 33-796): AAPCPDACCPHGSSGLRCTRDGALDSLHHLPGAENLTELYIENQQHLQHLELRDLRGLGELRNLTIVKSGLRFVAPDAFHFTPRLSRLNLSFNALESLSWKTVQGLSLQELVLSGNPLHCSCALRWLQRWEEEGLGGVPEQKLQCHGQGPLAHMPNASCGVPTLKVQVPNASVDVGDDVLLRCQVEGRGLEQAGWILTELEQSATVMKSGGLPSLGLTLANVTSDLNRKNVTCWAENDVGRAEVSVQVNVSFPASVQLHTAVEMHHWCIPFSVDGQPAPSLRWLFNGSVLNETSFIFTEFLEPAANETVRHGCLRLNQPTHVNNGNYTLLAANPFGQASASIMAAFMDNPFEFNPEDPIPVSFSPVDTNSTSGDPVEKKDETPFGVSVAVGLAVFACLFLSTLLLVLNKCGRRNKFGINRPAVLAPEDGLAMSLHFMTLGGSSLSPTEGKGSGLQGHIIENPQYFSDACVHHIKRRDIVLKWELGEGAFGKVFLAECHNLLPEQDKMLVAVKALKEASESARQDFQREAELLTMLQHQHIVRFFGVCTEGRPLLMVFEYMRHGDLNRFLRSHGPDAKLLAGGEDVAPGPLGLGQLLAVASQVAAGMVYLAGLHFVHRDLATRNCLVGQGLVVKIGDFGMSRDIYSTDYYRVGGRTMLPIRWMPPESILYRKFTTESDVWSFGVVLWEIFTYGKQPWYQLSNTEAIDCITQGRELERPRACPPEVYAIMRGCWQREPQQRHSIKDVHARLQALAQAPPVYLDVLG
T1 sequence (P10721 589-937): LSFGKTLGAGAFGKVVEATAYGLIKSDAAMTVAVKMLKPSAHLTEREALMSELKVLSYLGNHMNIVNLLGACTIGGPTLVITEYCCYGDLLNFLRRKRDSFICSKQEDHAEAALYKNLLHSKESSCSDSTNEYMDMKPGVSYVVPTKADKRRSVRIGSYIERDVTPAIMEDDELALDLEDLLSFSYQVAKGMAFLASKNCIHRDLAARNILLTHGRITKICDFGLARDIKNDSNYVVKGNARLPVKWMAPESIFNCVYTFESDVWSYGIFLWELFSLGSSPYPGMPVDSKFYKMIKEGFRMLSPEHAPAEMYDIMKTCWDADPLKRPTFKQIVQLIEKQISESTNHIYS

| Structure (SMILES) | IC50 (BCR-KIT BaF3 cells) | IC50 (TrkA kinase) | IC50 (SKNSH cells) |
| --- | --- | --- | --- |
| O=C(c1ccc(NC2CCC(F)(F)CC2)nc1F)c1c[nH]c2ncnc(NC3CC3)c12 [Compound P-4062, [4-(cyclopropylamino)-7H-pyrrolo[2,3-d]pyrimidin-5-yl]-[6-[(4,4-difluorocyclohexyl)amino]-2-fluoro-3-pyridyl]methanone] | < 1 µM | < 0.01 µM | < 1 µM |
| CNc1ncnc2[nH]cc(C(=O)c3ccc(NC4CCC(F)(F)CC4)nc3F)c12 [Compound P-4063, [6-[(4,4-difluorocyclohexyl)amino]-2-fluoro-3-pyridyl]-[4-(methylamino)-7H-pyrrolo[2,3-d]pyrimidin-5-yl]methanone] | < 0.1 µM | < 0.01 µM | < 1 µM |
| CNc1ncnc2[nH]cc(C(=O)c3ccc(NC4CCC(F)(F)CC4)nc3)c12 [Compound P-4089, [6-[(4,4-difluorocyclohexyl)amino]-3-pyridyl]-[4-(methylamino)-7H-pyrrolo[2,3-d]pyrimidin-5-yl]methanone] | < 1 µM | < 0.1 µM | < 10 µM |
| CCc1ccc(Nc2ccc(C(=O)c3c[nH]c4ncnc(NC5CCC5)c34)c(F)n2)cn1 [Compound P-4095, [4-(cyclobutylamino)-7H-pyrrolo[2,3-d]pyrimidin-5-yl]-[6-[(6-ethyl-3-pyridyl)amino]-2-fluoro-3-pyridyl]methanone] | < 0.1 µM | < 0.01 µM | < 1 µM |
| CCc1ccc(Nc2ccc(C(=O)c3c[nH]c4ncnc(NC5CCC(F)(F)CC5)c34)c(F)n2)cn1 [Compound P-4096, [4-[(4,4-difluorocyclohexyl)amino]-7H-pyrrolo[2,3-d]pyrimidin-5-yl]-[6-[(6-ethyl-3-pyridyl)amino]-2-fluoro-3-pyridyl]methanone] | < 1 µM | < 0.1 µM | < 10 µM |
| CCc1ccc(Nc2ccc(C(=O)c3c[nH]c4ncnc(N[C@@H](C)c5ccc(F)cc5)c34)c(F)n2)cn1 [Compound P-4097, [6-[(6-ethyl-3-pyridyl)amino]-2-fluoro-3-pyridyl]-[4-[[(1S)-1-(4-fluorophenyl)ethyl]amino]-7H-pyrrolo[2,3-d]pyrimidin-5-yl]methanone] | < 1 µM | < 0.1 µM | < 10 µM |
| CCc1ccc(Nc2ccc(C(=O)c3c[nH]c4ncnc(NCCCOC)c34)c(F)n2)cn1 [Compound P-4098, [6-[(6-ethyl-3-pyridyl)amino]-2-fluoro-3-pyridyl]-[4-(3-methoxypropylamino)-7H-pyrrolo[2,3-d]pyrimidin-5-yl]methanone] | < 0.1 µM | < 0.01 µM | < 10 µM |
| CCc1ccc(Nc2ccc(C(=O)c3c[nH]c4ncnc(NC5CCCC5)c34)c(F)n2)cn1 [Compound P-4099, [4-(cyclopentylamino)-7H-pyrrolo[2,3-d]pyrimidin-5-yl]-[6-[(6-ethyl-3-pyridyl)amino]-2-fluoro-3-pyridyl]methanone] | < 0.1 µM | < 0.1 µM | < 1 µM |
| CC(C)Nc1ncnc2[nH]cc(C(=O)c3ccc(NC4CCCCC4)nc3F)c12 [Compound P-4101, [6-(cyclohexylamino)-2-fluoro-3-pyridyl]-[4-(isopropylamino)-7H-pyrrolo[2,3-d]pyrimidin-5-yl]methanone] | < 1 µM | < 0.1 µM | < 1 µM |
| CNc1ncnc2[nH]cc(C(=O)c3ccc(NC4CCCCC4)nc3F)c12 [Compound P-4102, [6-(cyclohexylamino)-2-fluoro-3-pyridyl]-[4-(methylamino)-7H-pyrrolo[2,3-d]pyrimidin-5-yl]methanone] | < 1 µM | < 0.1 µM | < 1 µM |
| COc1cncc(Nc2ccc(C(=O)c3c[nH]c4ncnc(NC5CCCCC5)c34)c(F)n2)c1 [Compound P-4104, [4-(cyclohexylamino)-7H-pyrrolo[2,3-d]pyrimidin-5-yl]-[2-fluoro-6-[(5-methoxy-3-pyridyl)amino]-3-pyridyl]methanone] | > 1 µM | < 0.1 µM | < 1 µM |

Further lines, results first:

| IC50 (BCR-KIT BaF3 cells) | IC50 (TrkA kinase) | IC50 (SKNSH cells) | Structure (SMILES) |
| --- | --- | --- | --- |
| < 0.1 µM | < 0.01 µM | < 1 µM | CCc1ccc(Nc2ccc(C(=O)c3c[nH]c4ncnc(N)c34)c(F)n2)cn1 [Compound P-4065, (4-amino-7H-pyrrolo[2,3-d]pyrimidin-5-yl)-[6-[(6-ethyl-3-pyridyl)amino]-2-fluoro-3-pyridyl]methanone] |
| < 1 µM | < 0.01 µM | < 10 µM | COc1ccc(Nc2ccc(C(=O)c3c[nH]c4ncnc(NCC(F)(F)F)c34)c(F)n2)cn1 [Compound P-4084, [2-fluoro-6-[(6-methoxy-3-pyridyl)amino]-3-pyridyl]-[4-(2,2,2-trifluoroethylamino)-7H-pyrrolo[2,3-d]pyrimidin-5-yl]methanone] |
| < 1 µM | < 0.1 µM | < 1 µM | O=C(c1ccc(Nc2ccc(C3CC3)nc2)nc1F)c1c[nH]c2ncnc(NCC(F)(F)F)c12 [Compound P-4090, [6-[(6-cyclopropyl-3-pyridyl)amino]-2-fluoro-3-pyridyl]-[4-(2,2,2-trifluoroethylamino)-7H-pyrrolo[2,3-d]pyrimidin-5-yl]methanone] |
| < 0.1 µM | < 0.01 µM | < 0.1 µM | O=C(c1ccc(Nc2ccc(C(F)(F)F)nc2)nc1F)c1c[nH]c2ncnc(NC3CC3)c12 [Compound P-4091, [4-(cyclopropylamino)-7H-pyrrolo[2,3-d]pyrimidin-5-yl]-[2-fluoro-6-[[6-(trifluoromethyl)-3-pyridyl]amino]-3-pyridyl]methanone] |
| < 0.1 µM | < 0.01 µM | < 1 µM | CNc1ncnc2[nH]cc(C(=O)c3ccc(Nc4ccc(C(F)(F)F)nc4)nc3F)c12 [Compound P-4092, [2-fluoro-6-[[6-(trifluoromethyl)-3-pyridyl]amino]-3-pyridyl]-[4-(methylamino)-7H-pyrrolo[2,3-d]pyrimidin-5-yl]methanone] |
| < 0.1 µM | < 0.01 µM | < 1 µM | CNc1ncnc2[nH]cc(C(=O)c3ccc(Nc4ccc(C5CC5)nc4)nc3F)c12 [Compound P-4094, [6-[(6-cyclopropyl-3-pyridyl)amino]-2-fluoro-3-pyridyl]-[4-(methylamino)-7H-pyrrolo[2,3-d]pyrimidin-5-yl]methanone] |
| < 1 µM | < 0.1 µM | < 1 µM | CCCCNc1ncnc2[nH]cc(C(=O)c3ccc(Nc4ccc(CC)nc4)nc3F)c12 [Compound P-4100, [4-(butylamino)-7H-pyrrolo[2,3-d]pyrimidin-5-yl]-[6-[(6-ethyl-3-pyridyl)amino]-2-fluoro-3-pyridyl]methanone] |
| > 1 µM | < 0.1 µM | > 1 µM | COc1cncc(Nc2ccc(C(=O)c3c[nH]c4ncnc(NCC(F)(F)F)c34)c(F)n2)c1 [Compound P-4103, [2-fluoro-6-[(5-methoxy-3-pyridyl)amino]-3-pyridyl]-[4-(2,2,2-trifluoroethylamino)-7H-pyrrolo[2,3-d]pyrimidin-5-yl]methanone] |
